Data reported in patent US20260242419A1, “A CYCLIC PEPTIDE FOR TRAPPING INTERLEUKIN-1 BETA” (Merck Sharp & Dohme LLC, priority 2023, published 2026).
Non-standard residues stand in square brackets, D forms with d. Residues, ends and D or L forms follow the SMILES beside them. dPro(4R-(4-pyridylmethyl)) = O=C(O)[C@H]1C[C@@H](Cc2ccncc2)CN1; Trp(βS-Me,4-F) = C[C@@H](c1c[nH]c2cccc(F)c12)[C@H](N)C(=O)O; Bip(4'-COOH) = N[C@@H](Cc1ccc(-c2ccc(C(=O)O)cc2)cc1)C(=O)O; Trp(4-Cl) = N[C@@H](Cc1c[nH]c2cccc(Cl)c12)C(=O)O; Ala(pyrimidin-5-yl) = N[C@@H](Cc1cncnc1)C(=O)O; Phe(4-COOH) = N[C@@H](Cc1ccc(C(=O)O)cc1)C(=O)O; Trp(4-F) = N[C@@H](Cc1c[nH]c2cccc(F)c12)C(=O)O; Bip = N[C@@H](Cc1ccc(-c2ccccc2)cc1)C(=O)O; Pro(cis-4-F) = O=C(O)[C@@H]1C[C@H](F)CN1; Dap(CONH2) = NC(=O)NC[C@H](N)C(=O)O; d(αMeD) = C[C@@](N)(CC(=O)O)C(=O)O; 4Pal = N[C@@H](Cc1ccncc1)C(=O)O; aThr = C[C@H](O)[C@H](N)C(=O)O; dOrn = NCCC[C@@H](N)C(=O)O; dDab = NCC[C@@H](N)C(=O)O; dDap = NC[C@@H](N)C(=O)O; Dab = NCC[C@H](N)C(=O)O; Nva = CCC[C@H](N)C(=O)O; Aib = CC(C)(N)C(=O)O

Molecular target: T1, IL-1β (Homo sapiens, UniProt P01584)
T1 construct: purchased BioLegend 579404
T1 sequence (P01584 117-269): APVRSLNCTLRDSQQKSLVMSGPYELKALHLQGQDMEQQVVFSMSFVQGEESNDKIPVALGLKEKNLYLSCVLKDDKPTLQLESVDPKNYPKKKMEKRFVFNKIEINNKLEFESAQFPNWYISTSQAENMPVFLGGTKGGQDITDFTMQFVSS
Assay: IL-6 assay in MRC5 cells: inhibition of IL-1β induced IL-6 secretion (AlphaLISA)
Assay type: cell-based
Conditions: inhibition of IL-1β induced IL-6 secretion in MRC5 cells; compound pre-incubated 1 hour with recombinant human IL-1β; read-out: MRC5 IC50
Method in brief: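 Compound was pre-incubated 1 h at ambient temperature with recombinant human IL-1β at 2λ EC80 before adding human lung fibroblast MRC5 cells (3000/well) in EMEM with 0.025% BSA. After overnight culture at 37 °C, 5% CO2, secreted IL-6 in conditioned medium was measured by AlphaLISA; IC50 from 4-parameter logistic fits.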

IC50 [nM] | Compound
0.022 | C[C@@H](c1c[nH]c2cccc(F)c12)[C@@H]1NC(=O)[C@@H]2C[C@H](F)CN2C(=O)CNC(=O)[C@H](Cc2ccc(C(=O)O)cc2)NC(=O)[C@H](Cc2ccncc2)NC(=O)[C@H](Cc2ccc(-c3ccc(C(=O)O)cc3)cc2)NC(=O)[C@H]2C[C@@H](Cc3ccncc3)CN2C(=O)CNC(=O)[C@H](CCN)NC(=O)[C@H](CCC(N)=O)NC(=O)[C@@H](Cc2ccccc2)NC(=O)[C@@](C)(CC(=O)O)NC(=O)[C@H](Cc2c[nH]c3ccccc23)NC(=O)[C@H](CO)NC(=O)C(C)(C)NC1=O [Example 243] (cyclo([Bip(4'-COOH)][4Pal][Phe(4-COOH)]G[Pro(cis-4-F)][Trp(βS-Me,4-F)][Aib]SW[d(αMeD)][dF]Q[Dab]G[dPro(4R-(4-pyridylmethyl))]))
0.03 | C[C@@H](c1c[nH]c2cccc(F)c12)[C@@H]1NC(=O)[C@@H]2C[C@H](F)CN2C(=O)CNC(=O)[C@H](Cc2ccc(C(=O)O)cc2)NC(=O)[C@H](Cc2ccncc2)NC(=O)[C@H](Cc2ccc(-c3ccccc3)cc2)NC(=O)[C@H]2C[C@@H](Cc3ccncc3)CN2C(=O)CNC(=O)[C@H](CNC(N)=O)NC(=O)[C@H](CCC(N)=O)NC(=O)[C@@H](CCCCN)NC(=O)[C@@](C)(CC(=O)O)NC(=O)[C@H](Cc2c[nH]c3ccccc23)NC(=O)[C@H](CO)NC(=O)C(C)(C)NC1=O [Example 244] (cyclo([Bip][4Pal][Phe(4-COOH)]G[Pro(cis-4-F)][Trp(βS-Me,4-F)][Aib]SW[d(αMeD)][dK]Q[Dap(CONH2)]G[dPro(4R-(4-pyridylmethyl))]))
0.027 | C[C@@H](c1c[nH]c2cccc(F)c12)[C@@H]1NC(=O)[C@@H]2C[C@H](F)CN2C(=O)CNC(=O)[C@H](Cc2ccc(C(=O)O)cc2)NC(=O)[C@H](Cc2ccncc2)NC(=O)[C@H](Cc2ccc(-c3ccccc3)cc2)NC(=O)[C@H]2C[C@@H](Cc3ccncc3)CN2C(=O)CNC(=O)[C@H](CNC(N)=O)NC(=O)[C@H](CCC(N)=O)NC(=O)[C@@H](CCCN)NC(=O)[C@@](C)(CC(=O)O)NC(=O)[C@H](Cc2c[nH]c3ccccc23)NC(=O)[C@H](CO)NC(=O)C(C)(C)NC1=O [Example 245] (cyclo([Bip][4Pal][Phe(4-COOH)]G[Pro(cis-4-F)][Trp(βS-Me,4-F)][Aib]SW[d(αMeD)][dOrn]Q[Dap(CONH2)]G[dPro(4R-(4-pyridylmethyl))]))
0.031 | C[C@@H](c1c[nH]c2cccc(F)c12)[C@@H]1NC(=O)[C@@H]2C[C@H](F)CN2C(=O)CNC(=O)[C@H](Cc2ccc(C(=O)O)cc2)NC(=O)[C@H](Cc2ccncc2)NC(=O)[C@H](Cc2ccc(-c3ccccc3)cc2)NC(=O)[C@H]2C[C@@H](Cc3ccncc3)CN2C(=O)CNC(=O)[C@H](CNC(N)=O)NC(=O)[C@H](CCC(N)=O)NC(=O)[C@@H](CN)NC(=O)[C@@](C)(CC(=O)O)NC(=O)[C@H](Cc2c[nH]c3ccccc23)NC(=O)[C@H](CO)NC(=O)C(C)(C)NC1=O [Example 246] (cyclo([Bip][4Pal][Phe(4-COOH)]G[Pro(cis-4-F)][Trp(βS-Me,4-F)][Aib]SW[d(αMeD)][dDap]Q[Dap(CONH2)]G[dPro(4R-(4-pyridylmethyl))]))
0.03 | C[C@@H](c1c[nH]c2cccc(F)c12)[C@@H]1NC(=O)[C@@H]2C[C@H](F)CN2C(=O)CNC(=O)[C@H](Cc2ccc(C(=O)O)cc2)NC(=O)[C@H](Cc2ccncc2)NC(=O)[C@H](Cc2ccc(-c3ccccc3)cc2)NC(=O)[C@H]2C[C@@H](Cc3ccncc3)CN2C(=O)CNC(=O)[C@H](CNC(N)=O)NC(=O)[C@H](CCC(N)=O)NC(=O)[C@@H](CCN)NC(=O)[C@@](C)(CC(=O)O)NC(=O)[C@H](Cc2c[nH]c3ccccc23)NC(=O)[C@H](CO)NC(=O)C(C)(C)NC1=O [Example 247] (cyclo([Bip][4Pal][Phe(4-COOH)]G[Pro(cis-4-F)][Trp(βS-Me,4-F)][Aib]SW[d(αMeD)][dDab]Q[Dap(CONH2)]G[dPro(4R-(4-pyridylmethyl))]))
0.028 | C[C@@H](c1c[nH]c2cccc(F)c12)[C@@H]1NC(=O)[C@@H]2C[C@H](F)CN2C(=O)CNC(=O)[C@H](Cc2ccc(C(=O)O)cc2)NC(=O)[C@H](Cc2ccncc2)NC(=O)[C@H](Cc2ccc(-c3ccccc3)cc2)NC(=O)[C@H]2C[C@@H](Cc3ccncc3)CN2C(=O)CNC(=O)[C@H](CCN)NC(=O)[C@H](CCC(N)=O)NC(=O)[C@@H](CCN)NC(=O)[C@@](C)(CC(=O)O)NC(=O)[C@H](Cc2c[nH]c3ccccc23)NC(=O)[C@H](CO)NC(=O)C(C)(C)NC1=O [Example 248] (cyclo([Bip][4Pal][Phe(4-COOH)]G[Pro(cis-4-F)][Trp(βS-Me,4-F)][Aib]SW[d(αMeD)][dDab]Q[Dab]G[dPro(4R-(4-pyridylmethyl))]))
0.016 | C[C@@H](c1c[nH]c2cccc(F)c12)[C@@H]1NC(=O)[C@@H]2C[C@H](F)CN2C(=O)CNC(=O)[C@H](Cc2ccc(C(=O)O)cc2)NC(=O)[C@H](Cc2ccncc2)NC(=O)[C@H](Cc2ccc(-c3ccccc3)cc2)NC(=O)[C@H]2C[C@@H](Cc3ccncc3)CN2C(=O)CNC(=O)[C@H](CCN)NC(=O)[C@H](CCC(N)=O)NC(=O)[C@@H](CCC(=O)O)NC(=O)[C@@](C)(CC(=O)O)NC(=O)[C@H](Cc2c[nH]c3ccccc23)NC(=O)[C@H](CO)NC(=O)C(C)(C)NC1=O [Example 249] (cyclo([Bip][4Pal][Phe(4-COOH)]G[Pro(cis-4-F)][Trp(βS-Me,4-F)][Aib]SW[d(αMeD)][dE]Q[Dab]G[dPro(4R-(4-pyridylmethyl))]))
0.027 | C[C@@H](c1c[nH]c2cccc(F)c12)[C@@H]1NC(=O)[C@@H]2C[C@H](F)CN2C(=O)CNC(=O)[C@H](Cc2ccc(C(=O)O)cc2)NC(=O)[C@H](Cc2ccncc2)NC(=O)[C@H](Cc2ccc(-c3ccccc3)cc2)NC(=O)[C@H]2C[C@@H](Cc3ccncc3)CN2C(=O)CNC(=O)[C@H](CCN)NC(=O)[C@H](CCC(N)=O)NC(=O)[C@@H](CCC(=O)O)NC(=O)C(C)(C)NC(=O)[C@H](Cc2c[nH]c3ccccc23)NC(=O)[C@H](CO)NC(=O)C(C)(C)NC1=O [Example 250] (cyclo([Bip][4Pal][Phe(4-COOH)]G[Pro(cis-4-F)][Trp(βS-Me,4-F)][Aib]SW[Aib][dE]Q[Dab]G[dPro(4R-(4-pyridylmethyl))]))
0.013 | C[C@@H](c1c[nH]c2cccc(F)c12)[C@@H]1NC(=O)[C@@H]2C[C@H](F)CN2C(=O)CNC(=O)[C@H](Cc2ccc(C(=O)O)cc2)NC(=O)[C@H](Cc2ccncc2)NC(=O)[C@H](Cc2ccc(-c3ccc(C(=O)O)cc3)cc2)NC(=O)[C@H]2C[C@@H](Cc3ccncc3)CN2C(=O)CNC(=O)[C@H](CCN)NC(=O)[C@H](CCC(N)=O)NC(=O)[C@H](Cc2cncnc2)NC(=O)[C@@](C)(CC(=O)O)NC(=O)[C@H](Cc2c[nH]c3cccc(Cl)c23)NC(=O)[C@H](CO)NC(=O)C(C)(C)NC1=O [Example 251] (cyclo([Bip(4'-COOH)][4Pal][Phe(4-COOH)]G[Pro(cis-4-F)][Trp(βS-Me,4-F)][Aib]S[Trp(4-Cl)][d(αMeD)][Ala(pyrimidin-5-yl)]Q[Dab]G[dPro(4R-(4-pyridylmethyl))]))
0.013 | C[C@@H](c1c[nH]c2cccc(F)c12)[C@@H]1NC(=O)[C@@H]2C[C@H](F)CN2C(=O)CNC(=O)[C@H](Cc2ccc(C(=O)O)cc2)NC(=O)[C@H](Cc2ccncc2)NC(=O)[C@H](Cc2ccc(-c3ccc(C(=O)O)cc3)cc2)NC(=O)[C@H]2C[C@@H](Cc3ccncc3)CN2C(=O)CNC(=O)[C@H](CCN)NC(=O)[C@H](CCC(N)=O)NC(=O)[C@H](Cc2cncnc2)NC(=O)[C@@](C)(CC(=O)O)NC(=O)[C@H](Cc2c[nH]c3cccc(F)c23)NC(=O)[C@H](CO)NC(=O)C(C)(C)NC1=O [Example 252] (cyclo([Bip(4'-COOH)][4Pal][Phe(4-COOH)]G[Pro(cis-4-F)][Trp(βS-Me,4-F)][Aib]S[Trp(4-F)][d(αMeD)][Ala(pyrimidin-5-yl)]Q[Dab]G[dPro(4R-(4-pyridylmethyl))]))
0.013 | CCC[C@@H]1NC(=O)[C@@](C)(CC(=O)O)NC(=O)[C@H](Cc2c[nH]c3ccccc23)NC(=O)[C@H](CO)NC(=O)C(C)(C)NC(=O)[C@H]([C@@H](C)c2c[nH]c3cccc(F)c23)NC(=O)[C@@H]2C[C@H](F)CN2C(=O)CNC(=O)[C@H](Cc2ccc(C(=O)O)cc2)NC(=O)[C@H](Cc2ccncc2)NC(=O)[C@H](Cc2ccc(-c3ccc(C(=O)O)cc3)cc2)NC(=O)[C@H]2C[C@@H](Cc3ccncc3)CN2C(=O)CNC(=O)[C@H](CCN)NC(=O)[C@H](CCC(N)=O)NC1=O [Example 253] (cyclo([Bip(4'-COOH)][4Pal][Phe(4-COOH)]G[Pro(cis-4-F)][Trp(βS-Me,4-F)][Aib]SW[d(αMeD)][Nva]Q[Dab]G[dPro(4R-(4-pyridylmethyl))]))
0.013 | CO[C@@H](C)[C@@H]1NC(=O)[C@@](C)(CC(=O)O)NC(=O)[C@H](Cc2c[nH]c3ccccc23)NC(=O)[C@H](CO)NC(=O)C(C)(C)NC(=O)[C@H]([C@@H](C)c2c[nH]c3cccc(F)c23)NC(=O)[C@@H]2C[C@H](F)CN2C(=O)CNC(=O)[C@H](Cc2ccc(C(=O)O)cc2)NC(=O)[C@H](Cc2ccncc2)NC(=O)[C@H](Cc2ccc(-c3ccc(C(=O)O)cc3)cc2)NC(=O)[C@H]2C[C@@H](Cc3ccncc3)CN2C(=O)CNC(=O)[C@H](CCN)NC(=O)[C@H](CCC(N)=O)NC1=O [Example 254] (cyclo([Bip(4'-COOH)][4Pal][Phe(4-COOH)]G[Pro(cis-4-F)][Trp(βS-Me,4-F)][Aib]SW[d(αMeD)][aThr](Me)Q[Dab]G[dPro(4R-(4-pyridylmethyl))]))
0.011 | CO[C@H](C)[C@@H]1NC(=O)[C@@](C)(CC(=O)O)NC(=O)[C@H](Cc2c[nH]c3ccccc23)NC(=O)[C@H](CO)NC(=O)C(C)(C)NC(=O)[C@H]([C@@H](C)c2c[nH]c3cccc(F)c23)NC(=O)[C@@H]2C[C@H](F)CN2C(=O)CNC(=O)[C@H](Cc2ccc(C(=O)O)cc2)NC(=O)[C@H](Cc2ccncc2)NC(=O)[C@H](Cc2ccc(-c3ccc(C(=O)O)cc3)cc2)NC(=O)[C@H]2C[C@@H](Cc3ccncc3)CN2C(=O)CNC(=O)[C@H](CCN)NC(=O)[C@H](CCC(N)=O)NC1=O [Example 255] (cyclo([Bip(4'-COOH)][4Pal][Phe(4-COOH)]G[Pro(cis-4-F)][Trp(βS-Me,4-F)][Aib]SW[d(αMeD)]T(Me)Q[Dab]G[dPro(4R-(4-pyridylmethyl))]))
